From patent US8637521B2, “Substituted piperazin-2,5-diones and their use as multifunctional bioactive compounds” (priority 2006, dated 2014)
Where “and” joins values, the source holds several entries; their conditions need not be identical. Equal entries are not always repeated.

Legend:
antibodies to ovalbumin [1] = test: Adjuvant activity with ovalbumin immunization (Example 7); assay type: in vivo, mice; details: Table 6
Experimental: Adjuvant activity was tested on 6 groups of mice. Each group consisted of 5 animals. Three immunizations were performed as follows:
• 1. Mouse Nos. 1 to 5—Complete Freund's adjuvant (CFA=control) • 2. Mouse Nos. 6 to 10—ovalbumin (OVA egg) 25 micrograms per animal+adjuvant 100 micrograms per animal • 3. Mouse Nos. 11 to 15—ovalbumin 25 micrograms per animal+CFA • 4. Mouse Nos. 16 to 20—ovalbumin 25 micrograms per animal • 5. Mouse Nos. 21 to 25—ovalbumin 25 micrograms per animal+adjuvant 1 microgram per animal • 6. Mouse Nos. 26 to 30—ovalbumin 25 micrograms per animal+adjuvant 10 micrograms per animal Second Immunization:
The same set 21 days after first immunization by injection of 12.5 micrograms of ovalbumin/mouse to mouse nos. 6 to 30.
The same set 35 days after first immunization by injection of 12.5 microgram of ovalbumin/mouse to mouse nos. 6 to 30.
On day 42, blood samples from each mouse were collected. The stimulation index of each group was compared. The stimulation index was calculated by dividing the test pooled sera dilution yielding OD=1 by the dilution of pooled sera from mice immunized without the adjuvant, yielding OD=1.

Anti-OVA antibody titers = test: Adjuvant activity, anti-OVA antibody titers by ELISA (Example 8); assay type: in vivo, Balb/c mice; details: for Anti-protein antibody titer (pooled sera) / Stimulation index / Anti-protein antibody titer (for individual sera): Table 7
Experimental: Adjuvant activity was tested on 11 groups of Balb/c mice (obtained from Stolbovaya Breeding Station). Each group consisted of 7 animals. Three immunizations were performed as follows:
• Group 1—ovalbumin 25 micrograms per animal (Mouse Nos. 1 to 7) • Group 2—ovalbumin 25 micrograms per animal+CFA (Complete Freund's adjuvant) (Mouse Nos. 8 to 14) • Group 3—ovalbumin 25 micrograms per animal+adjuvant of compound 33a 100 micrograms per animal (Mouse Nos. 15 to 21) • Group 4—ovalbumin 25 micrograms per animal+adjuvant of compound 33a 10 micrograms per animal (Mouse Nos. […]) • Group 5—ovalbumin 25 micrograms per animal+adjuvant of compound 33a 1 microgram per animal (Mouse Nos. […]) • Group 6—ovalbumin 25 micrograms per animal+adjuvant of compound 33b 100 micrograms per animal (No. 36 to 42) • Group 7—ovalbumin 25 micrograms per animal+adjuvant of compound 33b 10 micrograms per animal (Mouse Nos. 43 to 49) • Group 8—ovalbumin 25 micrograms per animal+adjuvant of compound 33b 1 microgram per animal (Mouse Nos. 50 to 56) • Group 9—ovalbumin 25 micrograms per animal+adjuvant of compound 17 100 micrograms per animal (Mouse Nos. 57 to 63) • Group 10—ovalbumin 25 micrograms per animal+adjuvant of compound 1710 micrograms per animal (Mouse Nos. 64 to 70) • Group 11—ovalbumin 25 micrograms per animal+adjuvant of compound 171 microgram per animal (Mouse Nos. 71 to 77) Second Immunization:
The same set 14 days after first immunization by injection of 12.5 micrograms of ovalbumin/mouse to mouse nos. 1 to 77.
The same set 28 days after first immunization by injection of 12.5 micrograms of ovalbumin/mouse to mouse nos. 1 to 77.
On day 35 after first immunization, blood samples from each mouse were collected.
OVA (10 micrograms/ml) solution in 0.05 M sodium carbonate buffer (pH 9.5) was added to plate wells, 0.1 ml per well and incubated at 4° C. for 16 hours. The OVA solution was then removed and the plate was washed 4 times with PBS containing 0.05% Tween-20. Such washing was performed after each incubation stage. Serial twofold dilutions of sera (starting from 1:100 or 1:1000) were added to the wells, 0.1 ml per well and incubated at 37° C. for 1 hour followed by incubation (1 hour, 37° C.) with HRP-conjugated goat anti-mouse IgG antibodies (0.1 ml, 1 mg/ml in PBS) and then with a 0.1 mL substrate solution −0.05% H2O2 and 0.05% o-phenylene diamine in 0.05M sodium citrate buffer with a pH of 4.5. The reaction was stopped by adding 100 μl of 12.5% H2SO4. Absorbance was measured at a wavelength of 492 nm using a Multiscan Plus MKII (Flow Laboratories, Great Britain). Significant anti-protein antibody titer (for individual sera) was assessed as the serum dilution produced an absorbance value of more than 0.1 ODU and the minimum exceeds three times the control level. The antibody titer was presented and −log of dilution (FIGS. 2 and 3). The stimulation index for pooled sera was calculated by dividing the test pooled sera dilution producing OD=1 by the dilution of pooled sera from mice immunized without the adjuvant, producing OD=1. The results of the adjuvant activities of cyclo-L-Ala-L-Glu-(L-Trp-OH) (Compound 17), cyclo-L-Lys(N-acetyl-Glycosamine-N-acetyl-muramil)-L-Glu-(L-Trp-OH) (Compound 33a) and cyclo-D-Lys(N-acetyl-Glycosamine-N-acetyl-muramil)-D-Glu-(L-Trp-OH) (Compound 33b) are shown in Table 7 and the adjuvant activities of cyclo [L-Lys(Palmitoyil)-L-Glu(D-Trp-OH)] (Compound 26a) and cyclo [D-Lys(Palmitoyil)-D-Glu(D-Trp-OH)] (Compound 26b) are shown in Table 8 as well as in FIG. 4 which includes the results of the adjuvant activities of cyclo-L-Lys-L-Glu-(L-Trp-OH) (compound 19). It is noted that the peptides of compounds 26a and 26b are soluble in 0.1% NH4OH at a concentration of 1 mg per 1 to 2 ml.

[2] = test system: CFU-S population in the bone marrow; test: Spleen colony formation (CFU-S) by bone marrow cells of peptide-treated intact donor mice; assay type: in vivo, (CBA×C57 B1) F1 mice; details: Table 2, donor treated i/p
Experimental: The effect of tested substances on intact bone marrow was studied in vivo. […] Two days after administration of preparation, the mice were killed. Bone marrow suspension was prepared and injected intravenously to lethally irradiated mice. The colony forming activity was evaluated at day 8. Test animals were (CBA×C57 B1) F1 mice (30 mice per trial, average from 3 tests).

[3] = test system: hemopoietic precursor cells; test: Exogenous spleen colonies from bone marrow irradiated ex vivo with 1 Gy; assay type: in vivo
Experimental: In this study, the method of exogenous spleen colonies was applied. A suspension of intact bone marrow cells was irradiated ex vivo in the dose of 1 Gy. Different doses of Neogen or cyclic peptides were injected IP, 1M, subcutaneous or introduced per os to lethally irradiated recipients within an hour after the injection of irradiated bone marrow. Colonies were counted on day 8. All data in each group was the mean of three tests.

antibodies to ovalbumin [4] = test: Adjuvant activity with ovalbumin immunization (Example 6); assay type: in vivo, mice (C57B16); details: for Stimulation index: Table 5, ovalbumin alone = 1.00
Experimental: Adjuvant activity was tested on 5 groups of mice (C57B16). Each group consisted of 5 animals. Three immunizations were performed:
• 1. Group with Complete Freund's Adjuvant (CFA) • 2. Group with ovalbumin (OVA egg) (25 micrograms/mouse) • 3. Group with CFA+ovalbumin (25 micrograms/mouse) • 4. Group with ovalbumin (25 micrograms/mouse)+peptide 1 microgram/mouse • 5. Group with ovalbumin (25 micrograms/mouse)+peptide 10 micrograms/mouse Second Immunization:
The same set 21 days after first immunization by injection of 12.5 micrograms of ovalbumin/mouse to groups 2-5.
The same set 35 days after first immunization by injection of 12.5 micrograms of ovalbumin/mouse to groups 2-5.
On day 42, the total blood from each mouse was collected. The blood was pooled from each group of mice. The stimulation index of each group was compared. The stimulation index was calculated as a ratio between optical density (OD=1) of diluted pools of groups 3-5 to the optical density (OD=1) of diluted pools of group 2 (control with no adjuvant).

For `C[C@@H]1NC(=O)[C@H](CCC(=O)N[C@@H](Cc2c[nH]c3ccccc23)C(=O)O)NC1=O` [Compound 17, cyclo-L-Ala-L-Glu-(L-Trp-OH)], which Stimulation index (antibodies to ovalbumin [1]; adjuvant 1 microgram per animal) is on record?
The Stimulation index was 1.18.

And the Stimulation index (antibodies to ovalbumin [1]; adjuvant 10 micrograms per animal)?
The Stimulation index was 1.74.

And the Stimulation index (antibodies to ovalbumin [1]; adjuvant 100 micrograms per animal, ovalbumin alone = 1.0)?
The Stimulation index was 1.14.

What about the “adjuvant activity (FIG. 4), doses at which active” value (Anti-OVA antibody titers; FIG. 4) of the same compound?
The value was “active at 1, 10 and 100 μg/kg”.

What about the “Anti-protein antibody titer (pooled sera)” value (Anti-OVA antibody titers; 1 μg per animal) of the same compound?
Its value is 4.8.

What about the Stimulation index (Anti-OVA antibody titers; 1 μg per animal) of the same compound?
Its Stimulation index is 2.6.

What about the “Anti-protein antibody titer (pooled sera)” value (Anti-OVA antibody titers; 10 μg per animal) of the same compound?
Its value is 4.5.

And the Stimulation index (Anti-OVA antibody titers; 10 μg per animal)?
The Stimulation index was 1.9.

And the “Anti-protein antibody titer (pooled sera)” value (Anti-OVA antibody titers; 100 μg per animal, no adjuvant 4.5)?
Its value is 4.8.

And the Stimulation index (Anti-OVA antibody titers; 100 μg per animal, no adjuvant = 1)?
The Stimulation index was 2.3.

What about the “Anti-protein antibody titer (for individual sera)” value (Anti-OVA antibody titers; OVA + adjuvant 1 μg per animal, −log of dilution) of the same compound?
The value was 5.1 (3×) and 4.2 and 4.5 (2×) and 5.4.

And the “Anti-protein antibody titer (for individual sera)” value (Anti-OVA antibody titers; OVA + adjuvant 10 μg per animal, −log of dilution)?
The value was 4.8 and 4.2 and 4.1 and 4.5 (2×) and 5.4 and 3.9.

And the “Anti-protein antibody titer (for individual sera)” value (Anti-OVA antibody titers; OVA + adjuvant 100 μg per animal, titer as −log of dilution, one value per mouse)?
Its value is 4.5 and 4.2 (3×) and 5.1 (2×) and 4.8.

How did the “% suppression” value [2] turn out when `C[C@@H]1NC(=O)[C@H](CCC(=O)N[C@@H](Cc2c[nH]c3ccccc23)C(=O)[O-])NC1=O.[Na+]` [cyclo-LAla-LGlu-(LTrp-ONa), cyclo-L-Ala-L-Glu-(L-Trp-ONa)] was run?
Its value is 0%.

And the “Colony count CFU-8 - S per 10^5 cells M ± M” value ([2]; control 11.2 ± 0.4, colonies day 8)?
Its value is 11.7 ± 0.8 per 10^5 cells.

And the Colony count ([3]; 10 μg/kg IP, unirradiated 11.9 ± 0.4, 1 Gy alone 6.2 ± 0.6)?
Its Colony count is 8.0 ± 0.4.

And the “% stimulation” value ([3]; 10 μg/kg IP, unirradiated = 100, 1 Gy alone = 0)?
The value was 67.2%.

And the “% stimulation” value ([3]; 100 μg/kg IP)?
The value was 80.7%.

What about the Colony count ([3]; 100 μg/kg IP) of the same compound?
Its Colony count is 9.6 ± 0.7.

What about the “% stimulation” value ([3]; 100 μg/kg per/os) of the same compound?
Its value is 98.3%.

And the Colony count ([3]; 100 μg/kg per/os)?
The Colony count was 11.7 ± 0.6.

What about the Stimulation index (antibodies to ovalbumin [4]; ovalbumin + peptide 1 μg/mouse (group 4)) of the same compound?
Its Stimulation index is 1.18.

What about the Stimulation index (antibodies to ovalbumin [4]; ovalbumin + peptide 10 μg/mouse (group 5)) of the same compound?
Its Stimulation index is 1.74.

And the “increase of titers of antibodies to ovalbumin” value (antibodies to ovalbumin [4]; matches stimulation index 1.74 at 10 μg/mouse)?
The value was 74%.
